Legend:
[1] = system: pigs in which lung injury was induced; experiment: Partial pressure of oxygen in arterial blood (PaO2) in pigs with HCl-induced pulmonary injury; format: in vivo, New Yorkshire male pigs; conditions: pig
Description: (§1) A Teflon catheter was inserted into the femoral artery of each animal for measuring blood pressure, blood ANP level and blood gas. At the same time, a pulmonary arterial cathether was inserted through the right cephalic vein for recording the changes in pulmonary arterial pressure. Pulmonary arterial pressure (PAP) and right atrial pressure (RAP) were measured with thermistor-tipped pressure transducers. Pulmonary capillary wedge pressure (PCWP) was measured with a baloon-fitted catheter. Cardiac output (CO) was calculated from the average of three measurements by the thermodilution method. Body temperature was measured with a thermistor inserted into the pulmonary artery and maintained at 37°-38° C. with the aid of a heat jacket. Electrocardiograms were induced from the four limbs and the ECC waveform and the number of heart beats were measured.

[2] = system: pigs in which lung injury was induced; experiment: Pulmonary arterial pressure (PAP) in pigs with HCl-induced pulmonary injury; format: in vivo, New Yorkshire male pigs; conditions: pig
Description: as §1

[3] = system: pigs in which lung injury was induced; experiment: Blood pressure (BP) in pigs with HCl-induced pulmonary injury; format: in vivo, New Yorkshire male pigs; conditions: pig
Description: as §1

[4] = system: pigs in which lung injury was induced; experiment: Urine excretion in pigs with HCl-induced pulmonary injury; conditions: pig, ANP versus furosemide
Description: New Yorkshire male pigs weighing 16-24 kg were used in all experiments. The animals were allowed neither food nor water for 44 hr before test. They were initially anesthetized by intravenous injection of pentobarbital sodium (2.0 mg/kg) and pancuronium bromide (0.1 mg/kg) and, thereafter, the anesthetization was maintained by sustained intravenous injection of pentobarbital sodium (0.5 mg/kg/hr) and pancuronium bromide (0.1 mg/kg/hr). The animals were placed in prone position and ventilated at a frequency of 17 breaths/min with a tidal volume of 10-15 ml/kg, with the partial pressure of oxygen in arterial blood (PaO2) being held at 35-45 Torr. Physiological saline (5 ml/kg) was initially infused by intravenous injection, followed by sustained intravenous injection for 30 min at a rate of 4 ml/kg/hr.
A cannula was inserted into the bladder of each animal and urine samples were collected at 30-min intervals. Blood sampling and hemodynamic measurements were also conducted at 30-min Intervals but intermediate between collections of urine samples. Blood samples for assaying blood α-hANP levels were collected into chilled glass tubes each containing EDTA (0.1 mg/ml) and aprotinin (500 KIU/ml). […] Plasma α-hANP levels were measured by the RIA method using a rabbit anti α-hANP antibody. […]

[5] = baseline (before HCl aspiration)

## NS(=O)(=O)c1cc(C(=O)O)c(NCc2ccco2)cc1Cl [furosemide]
[1]
  compensation of the decrease in PaO2 induced by HCl aspiration: could be compensated
[1]; 60 min after HCl aspiration (before drug administration)
  PaO2: 120.5±33.1 mmHg
[1]; 60 min after administration (180 min after HCl aspiration), control 171.1
  PaO2: 287.9±78.2 mmHg
[1]; [5]
  PaO2: 490.3±29.0 mmHg
[2]; after 60 min of administration (120 min after HCl aspiration), control 18.9±2.4
  PAP: 20.4±2.3 mmHg
[2]; [5]
  PAP: 12.7±1.9 mmHg
[3]
  BP lowering action / changes in BP: No significant changes
[4]
  intensity of diuretic action: comparable to each other
